The source of these data is patent US10919885B2, “Compounds and uses thereof” (Yumanity Therapeutics, Inc., priority 2018, dated 2021).

Some results are limits rather than exact numbers.

human SCD1, sequence (O00767 whole entry): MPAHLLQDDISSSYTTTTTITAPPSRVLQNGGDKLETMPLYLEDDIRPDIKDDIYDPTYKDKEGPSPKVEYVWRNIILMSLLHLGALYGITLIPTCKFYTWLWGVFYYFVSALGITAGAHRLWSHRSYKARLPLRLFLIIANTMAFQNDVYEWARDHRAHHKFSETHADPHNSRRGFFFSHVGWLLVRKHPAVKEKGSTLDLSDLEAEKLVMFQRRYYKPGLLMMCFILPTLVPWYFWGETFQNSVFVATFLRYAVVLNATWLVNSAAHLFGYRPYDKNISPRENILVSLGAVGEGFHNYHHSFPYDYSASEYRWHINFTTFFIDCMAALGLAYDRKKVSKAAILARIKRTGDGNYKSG

The experiment deals with human SCD1 (Homo sapiens (Human), UniProt O00767). Put plainly: Yeast growth assay, strain expressing human SCD1 as the sole desaturase (reduced growth as surrogate for SCD inhibition). The format is cell-based. The conditions noted are these: yeast with OLE1 deleted expressing human SCD1 from a plasmid; growth read as OD600 after 40 h at 30° C.; top drug concentration 33.3 μM. The method, then:
Strains expressing SCD1 or SCD5 as the sole desaturase, the human SCD1 and SCD5 genes were used to evaluate inhibition of SCD1/SCD5 using reduced growth as a surrogate for SCD inhibition. These yeast strains express human SCD1 or SCD5 from a plasmid harbored in a strain in which the yeast OLE1 gene is deleted.
All compound profiling experiments were performed using the same basic protocol. Yeast were cultured using standard techniques in complete synthetic media lacking uracil and containing yeast nitrogen base supplemented with 2% (w/v) glucose (SD-Ura) Starter cultures were inoculated in 3 mL SD-Ura media containing 0.01% tween and 0.2 mM palmitoleic and oleic acid. Cultures were incubated overnight in a 30° C. shaker incubator (225 rpm). Saturated morning cultures were centrifuged, washed in SD-Ura media lacking TWEEN-20 and fatty acids, and then diluted 1:20 in fresh SD-Ura media also lacking TWEEN-20 and fatty acids.
Compound administration was performed in two separate steps. First, 15 μL of SD-Ura was dispensed into clear 384-well assay plates using a MULTIDROP™ Combi reagent dispenser. […] The cultures described above were centrifuged and washed with media lacking TWEEN-20 or oleic and palmitoleic acids.
After yeast delivery, assay plates were incubated under humidified conditions at 30° C. for 40 h. Yeast growth was monitored by reading the OD600 of each well using a microplate reader (Perkin Elmer EnVision™).
Broadly, the IC50 is the concentration at which inhibition is half-maximal. With `O=C(c1cc(-c2ccccc2)on1)N1CCC[C@@H]1c1ccccc1` [Compound 385], the IC50 is above 45 µM. For `O=C(c1cc(-c2ccc3c(c2)OCO3)on1)N1CCCC1C1CCOCC1` (stereo not drawn) [Compound 413], the IC50 is above 45 µM. As to `O=C(Nc1cnn(Cc2cnccc2C(F)(F)F)c1)c1cc(-c2ccc3c(c2)OCO3)on1` [Compound 199, 5-(2H-1,3-benzodioxol-5-yl)-N-(1-{[4-(trifluoromethyl)pyridin-3-yl]methyl}-1H-pyrazol-4-yl)-1,2-oxazole-3-carboxamide], the IC50 was above 45 µM. For the compound `O=C(c1cc(-c2ccc3c(c2)OCO3)on1)N1CCCC1c1ccc(Br)cc1` (stereo not drawn) [Compound 389], the 50% inhibitory concentration (IC50) was above 45 µM.

`COc1cccc(F)c1C1CCCN1C(=O)c1cc(-c2ccc3c(c2)OCO3)on1` (stereo not drawn) [Compound 453] showed an IC50 above 45 µM. For the compound `O=C(c1cc(-c2ccccc2)on1)N1CCC(c2cccc(F)c2)C1` (stereo not drawn) [Compound 339], the half-maximal inhibitory concentration (IC50) was above 45 µM.

Turning to `O=C(c1cc(-c2ccccc2)on1)N1CCC(c2cccc(F)c2)CC1` [Compound 307, [4-(3-fluorophenyl)-1-piperidyl]-(5-phenylisoxazol-3-yl)methanone], the IC50 is above 45 µM. `COc1ccc([C@@H]2CCCN2C(=O)c2cc(-c3ccc4c(c3)OCO4)on2)cc1` [Compound 359] came in with an IC50 above 45 µM. As to `O=C(c1cc(-c2ccccc2)on1)N1CCCC1c1ccccc1` (stereo not drawn) [Compound 387], the IC50 was above 45 µM. Regarding `O=C(c1cc(-c2ccc3c(c2)OCO3)on1)N1CCC[C@H]1c1ccccc1` [Compound 327], the IC50 was determined as 33.5 µM. `Cn1nccc1-c1ccc2c(C(=O)N3CCC[C@H]3c3ccccc3)noc2c1` [Compound 454] showed an IC50 above 45 µM.

Regarding `O=C(Nc1cnn(Cc2cccc(C(F)(F)F)c2)c1)c1cc(-c2ccco2)on1` [Compound 20, 5-(2-furyl)-N-[1-[[3-(trifluoromethyl)phenyl]methyl]pyrazol-4-yl]isoxazole-3-carboxamide], the IC50 was above 45 µM. For `COc1ccc(-c2cc(C(=O)N3CC(Cc4ccccc4)C3)no2)nn1` [Compound 256] the value was above 45 µM; for `COc1cccc(C2CCCN2C(=O)c2cc(-c3ccc4c(c3)OCO4)on2)c1` (stereo not drawn) [Compound 365], above 45 µM. As for “N-(1-(3-fluorobenzyl)-1H-pyrazol-4-yl)-5-(pyrimidin-4-yl)isoxazole-3-carboxamide [Compound 90]”, the IC50 stood at 1.1 µM. The compound `O=C(c1cc(-c2ccc3c(c2)OCO3)on1)N1CCCC1c1nc2ccccc2o1` (stereo not drawn) [Compound 461] displayed an IC50 above 45 µM.

Turning to “5-acetyl-N-(1-(3-fluorobenzyl)-1H-pyrazol-4-yl)isoxazole-3-carboxamide [Compound 91]”, the IC50 amounted to 0.439 µM. `CNC(=O)c1ccc(-c2cc(C(=O)N3CCC(F)(c4ccccc4)CC3)no2)cc1` [Compound 321] had an IC50 above 45 µM. Compound `CC(C)c1cc(C(=O)Nc2cnn(Cc3ccccc3)c2)no1` [Compound 117, N-(1-benzyl-1H-pyrazol-4-yl)-5-isopropylisoxazole-3-carboxamide] showed an IC50 of 0.026 µM. With `O=C(c1cc(-c2ccccn2)on1)N1CCC(c2ccccc2)C1` (stereo not drawn) [Compound 351], the IC50 was above 45 µM. Compound `O=C(Nc1cnn(Cc2cnccc2C(F)(F)F)c1)c1noc2c1CCCC2` [Compound 194, N-(1-{[4-(trifluoromethyl)pyridin-3-yl]methyl}-1H-pyrazol-4-yl)-4,5,6,7-tetrahydro-1,2-benzoxazole-3-carboxamide] displayed a concentration for half-maximal inhibition (IC50) of 25 µM.

`O=C(c1cc(-c2ccc3c(c2)OCO3)on1)N1CCC(c2ccccc2C(F)(F)F)CC1` [Compound 302, [5-(1,3-benzodioxol-5-yl)isoxazol-3-yl]-[4-[2-(trifluoromethyl)phenyl]-1-piperidyl]methanone] had a half-maximal inhibitory concentration (IC50) above 45 µM. Turning to `O=C(c1cc(-c2ccccc2)on1)N1CCC(c2ccccc2C(F)(F)F)CC1` [Compound 289, (5-phenylisoxazol-3-yl)-[4-[2-(trifluoromethyl)phenyl]-1-piperidyl]methanone], the IC50 was above 45 µM. `O=C(Nc1cnn(Cc2ccccc2)c1)c1cc(N2CCCC2)on1` [Compound 178, N-(1-benzyl-1H-pyrazol-4-yl)-5-(pyrrolidin-1-yl)isoxazole-3-carboxamide] yielded an IC50 of 0.01 µM. Take `O=C(Nc1cnn(Cc2ccccc2)c1)c1cc(N2CCCCC2)on1` [Compound 159, N-(1-benzyl-1H-pyrazol-4-yl)-5-(piperidin-1-yl)isoxazole-3-carboxamide]: the IC50 amounted to 0.058 µM. For `O=C(Nc1cnn(Cc2cc(F)ccc2C(F)(F)F)c1)c1cc(-c2ccco2)on1` [Compound 36, N-[1-[[5-fluoro-2-(trifluoromethyl)phenyl]methyl]pyrazol-4-yl]-5-(2-furyl)isoxazole-3-carboxamide] the value was above 45 µM.

In turn, `O=C(Nc1cnn(Cc2ccccc2)c1)c1cc(-c2nccs2)on1` [Compound 110, N-(1-benzyl-1H-pyrazol-4-yl)-5-(thiazol-2-yl)isoxazole-3-carboxamide] registered an IC50 of 8.9 µM. Under `O=C(Nc1cnn(Cc2ccccc2)c1)c1cc(-c2cnco2)on1` [Compound 149, N-(1-benzyl-1H-pyrazol-4-yl)-5-(oxazol-5-yl)isoxazole-3-carboxamide] stands above 45 µM; under `Cc1cccc(C2CCCN2C(=O)c2cc(-c3ccc4c(c3)OCO4)on2)c1` (stereo not drawn) [Compound 355], above 45 µM.

`O=C(Nc1cnn(Cc2cccc(F)c2)c1)c1cc(-c2cncs2)on1` [Compound 69, N-(1-(3-fluorobenzyl)-1H-pyrazol-4-yl)-5-(thiazol-5-yl)isoxazole-3-carboxamide] showed a 50% inhibitory concentration (IC50) of 0.19 µM. In turn, `O=C(c1cc(-c2ccc3c(c2)OCO3)on1)N1CCC(c2cccc(F)c2)CC1` [Compound 309, [5-(1,3-benzodioxol-5-yl)isoxazol-3-yl]-[4-(3-fluorophenyl)-1-piperidyl]methanone] had an IC50 above 45 µM.

In the case of `O=C(Nc1cnn(Cc2ccccc2)c1)c1cc(-c2ccco2)on1` [Compound 4, N-(1-benzyl-1H-pyrazol-4-yl)-5-(furan-2-yl)isoxazole-3-carboxamide], the IC50 came to 0.09 µM.

In turn, `O=C(Nc1cnn(Cc2cnccc2C(F)(F)F)c1)c1cc(-c2cnco2)on1` [Compound 171, 5-(oxazol-5-yl)-N-(1-((4-(trifluoromethyl)pyridin-3-yl)methyl)-1H-pyrazol-4-yl)isoxazole-3-carboxamide] yielded an IC50 of 19 µM.

`N#Cc1cccc(C2CCCN2C(=O)c2cc(-c3ccc4c(c3)OCO4)on2)c1` (stereo not drawn) [Compound 396] yielded an IC50 of 38.9 µM. On to `O=C(c1cc(-c2ccccc2)on1)N1CC2(C1)CC(O)(c1ccccc1)C2` [Compound 226, (6-hydroxy-6-phenyl-2-azaspiro[3.3]heptan-2-yl)-(5-phenylisoxazol-3-yl)methanone], for which the 50% inhibitory concentration (IC50) was found to be 12 µM.

Take `O=C(Nc1cnn(Cc2cnccc2C(F)(F)F)c1)c1cc(-c2ccccc2)on1` [Compound 160, 5-phenyl-N-(1-((4-(trifluoromethyl)pyridin-3-yl)methyl)-1H-pyrazol-4-yl)isoxazole-3-carboxamide]: the concentration for half-maximal inhibition (IC50) was above 45 µM.

Consider `O=C(c1cc(-c2ccc3c(c2)OCO3)on1)N1CCCC1c1ccccc1Br` (stereo not drawn) [Compound 390], for which the IC50 was above 45 µM. Under `COc1ccc(C2CCCN2C(=O)c2cc(-c3ccc4c(C)nn(C)c4c3)on2)cc1` (stereo not drawn) [Compound 394] stands above 45 µM. Under `Cc1ncc(-c2cc(C(=O)Nc3cnn(Cc4ccccc4)c3)no2)o1` [Compound 164, N-(1-benzyl-1H-pyrazol-4-yl)-5-(2-methyloxazol-5-yl)isoxazole-3-carboxamide] stands 11 µM. On to `O=C(c1cc(-c2ccc3c(c2)OCO3)on1)N1CCC[C@H]1C(F)(F)F` [Compound 373], for which the IC50 is above 45 µM. On to `O=C(Nc1cnn(Cc2ccccc2)c1)c1cc(-c2nncs2)on1` [Compound 170, N-(1-benzyl-1H-pyrazol-4-yl)-5-(1,3,4-thiadiazol-2-yl)isoxazole-3-carboxamide], for which the IC50 stood at 0.131 µM. Under `O=C(Nc1cnn(Cc2cccc(F)c2)c1)c1cc(-c2ccco2)on1` [Compound 30, N-[1-[(3-fluorophenyl)methyl]pyrazol-4-yl]-5-(2-furyl)isoxazole-3-carboxamide] stands 0.01 µM; under `CNC(=O)c1ccc(-c2cc(C(=O)N3CCC(c4ccccc4)CC3)no2)cc1` [Compound 304, N-methyl-4-[3-(4-phenylpiperidine-1-carbonyl)isoxazol-5-yl]benzamide], 0.38 µM; under `O=C(c1cc(-c2ccc3c(c2)OCO3)on1)N1CCC[C@H]1c1ccon1` [Compound 426], above 45 µM. In turn, `COc1ccccc1Cn1cc(NC(=O)c2cc(-c3ccccc3)on2)cn1` [Compound 125, N-(1-(2-methoxybenzyl)-1H-pyrazol-4-yl)-5-phenylisoxazole-3-carboxamide] gave an IC50 above 45 µM. `COc1ccc([C@H]2CCCN2C(=O)c2cc(-c3ccc4c(c3)OCO4)on2)cc1` [Compound 360]: the IC50 was above 45 µM.

`COC1(c2cc(C(=O)Nc3cnn(Cc4ccccc4)c3)no2)CCC1` [Compound 120] yielded an IC50 of 0.94 µM. `COC1(c2ccccc2)CCN(C(=O)c2cc(-c3ccccc3)on2)CC1` [Compound 323] returned an IC50 above 45 µM.
